The NIST ThermoML archive (doi:10.1016/j.jct.2016.03.026)

Assay: xn = mol fraction of the nth substance listed
Conditions: Fluid (supercritical or subcritical phases), Vibrating tube method, x1 = 0.97

O=C=O [carbon dioxide] + CO
Conditions	mass density [kg/m3]
304.21 K, 19750 kPa	887.4
304.21 K, 19775 kPa	887.64
304.21 K, 19800 kPa	887.8
304.21 K, 19825 kPa	887.96
304.21 K, 19850 kPa	888.12
304.21 K, 19875 kPa	888.28
304.21 K, 19900 kPa	888.48
304.21 K, 19925 kPa	888.67
304.21 K, 19950 kPa	888.82
304.21 K, 19975 kPa	888.98
304.21 K, 20000 kPa	889.2
313.15 K, 8375 kPa	468.68
313.15 K, 8400 kPa	477.47
313.15 K, 8425 kPa	486.09
313.15 K, 8450 kPa	494.72
313.15 K, 8475 kPa	503.03
313.15 K, 8500 kPa	510.78
313.15 K, 8525 kPa	518.43
313.15 K, 8550 kPa	525.63
313.15 K, 8575 kPa	531.85
313.15 K, 8600 kPa	538.44
313.15 K, 8625 kPa	544.56
313.15 K, 8650 kPa	551.14
313.15 K, 8675 kPa	556.46
313.15 K, 8700 kPa	562.19
313.15 K, 8725 kPa	566.94
313.15 K, 8750 kPa	571.39
313.15 K, 8775 kPa	576
313.15 K, 8800 kPa	580.21
313.15 K, 8825 kPa	583.78
313.15 K, 8850 kPa	587.78
313.15 K, 8875 kPa	591.7
313.15 K, 8900 kPa	595.4
313.15 K, 8925 kPa	598.87
313.15 K, 8950 kPa	601.87
313.15 K, 8975 kPa	604.9
313.15 K, 9000 kPa	608.05
313.15 K, 9025 kPa	611
313.15 K, 9050 kPa	613.79
313.15 K, 9075 kPa	616.51
313.15 K, 9100 kPa	619.14
313.15 K, 9125 kPa	621.62
313.15 K, 9150 kPa	624.11
313.15 K, 9175 kPa	626.69
313.15 K, 9200 kPa	629
313.15 K, 9225 kPa	631.2
313.15 K, 9250 kPa	633.38
313.15 K, 9275 kPa	635.44
313.15 K, 9300 kPa	637.48
313.15 K, 9325 kPa	639.32
313.15 K, 9350 kPa	641.4
313.15 K, 9375 kPa	643.26
313.15 K, 9400 kPa	645.2
313.15 K, 9425 kPa	646.98
313.15 K, 9450 kPa	648.9
313.15 K, 9475 kPa	650.62
313.15 K, 9500 kPa	652.27
313.15 K, 9525 kPa	653.94
313.15 K, 9550 kPa	655.55
313.15 K, 9575 kPa	657.12
313.15 K, 9600 kPa	658.64
313.15 K, 9625 kPa	660.18
313.15 K, 9650 kPa	661.7
313.15 K, 9675 kPa	663.21
313.15 K, 9700 kPa	664.7
313.15 K, 9725 kPa	666.14
313.15 K, 9750 kPa	667.47
313.15 K, 9775 kPa	668.89
313.15 K, 9800 kPa	670.26
313.15 K, 9825 kPa	671.58
313.15 K, 9850 kPa	672.87
313.15 K, 9875 kPa	674.13
313.15 K, 9900 kPa	675.44
313.15 K, 9925 kPa	676.66
313.15 K, 9950 kPa	677.96
313.15 K, 9975 kPa	679.1
313.15 K, 10000 kPa	680.33
313.15 K, 10025 kPa	681.48
313.15 K, 10050 kPa	682.54
313.15 K, 10075 kPa	683.7
313.15 K, 10100 kPa	684.8
313.15 K, 10125 kPa	685.84
313.15 K, 10150 kPa	686.83
313.15 K, 10175 kPa	687.88
313.15 K, 10200 kPa	688.8
313.15 K, 10225 kPa	689.94
313.15 K, 10250 kPa	690.95
313.15 K, 10275 kPa	691.93
313.15 K, 10300 kPa	693
313.15 K, 10325 kPa	693.97
313.15 K, 10350 kPa	694.91
313.15 K, 10375 kPa	695.92
313.15 K, 10400 kPa	696.92
313.15 K, 10425 kPa	697.78
313.15 K, 10450 kPa	698.73
313.15 K, 10475 kPa	699.66
313.15 K, 10500 kPa	700.62
313.15 K, 10525 kPa	701.51
313.15 K, 10550 kPa	702.39
313.15 K, 10575 kPa	703.29
313.15 K, 10600 kPa	704.13
313.15 K, 10625 kPa	705.05
313.15 K, 10650 kPa	705.9
313.15 K, 10675 kPa	706.75
313.15 K, 10700 kPa	707.66
313.15 K, 10725 kPa	708.5
313.15 K, 10750 kPa	709.33
313.15 K, 10775 kPa	710.14
313.15 K, 10800 kPa	710.93
313.15 K, 10825 kPa	711.74
313.15 K, 10850 kPa	712.55
313.15 K, 10875 kPa	713.33
313.15 K, 10900 kPa	714.15
313.15 K, 10925 kPa	714.94
313.15 K, 10950 kPa	715.71
313.15 K, 10975 kPa	716.52
313.15 K, 11000 kPa	717.28
313.15 K, 11025 kPa	718.03
313.15 K, 11050 kPa	718.76
313.15 K, 11075 kPa	719.52
313.15 K, 11100 kPa	720.27
313.15 K, 11125 kPa	720.97
